Measured values: patent US20260091082A1, “CYCLIC PEPTIDE DERIVATIVE COMPOSITION FOR TREATING OR PREVENTING EYE DISEASE” (DKS Co. Ltd., priority 2022, published 2026)
“And” between values parts separate entries of the source, which are not always exact repeats. Equal values may be shown once. “Also recorded” adds a separate entry of the source.

Assays:
[1] = tested on: anterior chamber aqueous humor pressure load rat model; assay: Retinal thickness (IPL, INL, ONL) in retinal damage model induced by anterior chamber aqueous humor pressure load; assay type: in vivo, Rat; Slc: SD; settings: for Inner plexiform layer (IPL) thickness compared with the control group, in words: 300 to 900 μm from the optic disk
Description: • Name: Compound 9 • Source: Synthesized in the above Examples • Used amount: 0.4 mL (50 mg/mL solution) • Storage conditions: Freezing, light shielding
Method for preparing test substance (1 mg/mL): A high concentration solution prepared at 50 mg/mL was diluted 50 times with a medium to prepare a 1 mg/mL administration solution.
• Name: MK-801 • Distributor: SIGMA-ALDRICH • Use amount: 0.0501 g • Storage condition: refrigerated (2° C. to 8° C.)
Method for preparing positive control substance (10 mg/mL): 0.0501 g was weighed out and made up to a total volume of 5 mL with a control substance (physiological saline).
• Species and strains: Rat; Slc: SD • Number of animals on arrival and sex: 50 males • Age in weeks at arrival: 6 weeks old • Body weight range at arrival: 147.2 to 170.0 g • Source: Japan SLC, Inc.
Grouping was performed two days before the first creation of the retinal damage model induced by an anterior chamber aqueous humor pressure load. Using the daily body weight as an index, stratified random allocation was performed using SAS (Ver. 9.3, SAS Institute Japan Ltd.) and EXSUS (Ver. 8.0, CAC Croit Corporation) so that an average value of the body weights of each group was approximately uniform.
• Administration route: Eyedrop administration, intravenous administration • Administration method (eyedrop): Eyedrop administration was performed on a treated eye (right eye) of a rat using a micropipette 4 times a day (at intervals of 1.5 hours or more). • Administration method (intravenous): The amount of administration solution, calculated from the body weight on the day of administration, was administered from the tail vein using a syringe and an injection needle about 30 minutes before ischemic load. • Time of administration: Administration was performed according to the following schedule.
1. 10 mg/kg xylazine hydrochloride was intramuscularly administered on the model creation day (day 0). A rat was placed in an anesthesia box and subjected to general anesthesia with isoflurane (5%, oxygen:nitrous oxide=1:3). When anesthesia was effective, the rat was taken out of the anesthesia box, an inhalation anesthetic mask was worn, and anesthesia was maintained with isoflurane (1% to 5%, oxygen nitrous oxide=1:3).
2. The body temperature was maintained at 37° C. with a warming mat, and a mydrin P ophthalmic solution was instilled in the right eye (treated eye) of the rat to dilate the pupil, then the cravit ophthalmic solution 1.5% (Santen Pharmaceutical Co., Ltd.) was instilled.
3. A bottle of an IV bag containing physiological saline was previously suspended so that a water surface was 155 cm (100 mmHg or more) higher than the eye of the rat. The IV bag was connected to a pediatric infusion set (Terumo Corporation), a 27 G injection needle thereof was inserted into and fixed to the anterior chamber while slightly dripping the liquid from a needle tip. The model was created in the light phase (6:00 to 18:00) in consideration of the diurnal variation of the intraocular pressure.
4. After the needle was inserted into the anterior chamber, pressure (100 mmHg or more) was loaded and maintained in the anterior chamber by associating the reflux system.
5. After an ischemic load for 45 minutes, the injection needle and the like were removed, the inhalation anesthetic mask was removed, and the rat was sufficiently woken up under a warming mat, and then returned to the cage.
6. For 2 days after surgery, 10 mg/kg xylazine hydrochloride was intramuscularly administered as an analgesic for the purpose of alleviating the pain after the treatment.
1. Fourteen days after model creation, general anesthesia was performed with isoflurane (5%, oxygen:nitrous oxide=1:3), euthanasia was then performed by exsanguination, a suture was placed as a marker at the 12 o'clock position of the ocular conjunctiva, and eyeball enucleation was performed.
2. […]

[2] = Body weight measurement during the CNV rat test; assay type: in vivo; settings: for Body Weight (Average): 14 days 4 times a day
Description: The appearance, behavior, and state of excrement or the like were observed every day.
The body weight was measured on the animal arrival date, the preliminary housing end date (grouping date), the eyedrop administration start date, the laser irradiation date (Day 0), and the eyeball enucleation date (Day 14).

[3] = compound 9, 1 mg/mL eye drop, right eye, individual animals 301-310
[4] = test groups 2 and 3 (test substance groups)

## CC[C@@]1(C)Oc2cc(ccc2O)C[C@H](NC)C(=O)N[C@@H](C(C)C)C(=O)N[C@@H]1C(=O)N[C@@H](CC(=O)O)C(=O)O [Compound 9]
[1]; [3]
  Thickness of ONL, distance from optic disk 300 μm (single measurement): 29.809 μm and 32.509 μm and 28.214 μm and 43.038 μm and 41.873 μm and 42.494 μm and 36.113 μm and 33.931 μm and 32.522 μm and 36.780 μm and 37.800 μm and 37.520 μm and 42.742 μm and 39.019 μm and 43.913 μm and 40.612 μm and 41.912 μm and 42.252 μm and 45.276 μm and 46.187 μm (2×) and 47.148 μm and 61.386 μm and 56.945 μm and 55.989 μm and 51.520 μm and 53.774 μm and 52.512 μm and 40.451 μm and 43.373 μm
  Thickness of ONL, distance from optic disk 600 μm (single measurement): 30.220 μm and 32.139 μm and 47.765 μm and 48.521 μm (2×) and 35.360 μm and 35.504 μm and 40.331 μm and 37.009 μm and 49.431 μm and 49.964 μm and 42.863 μm and 40.883 μm and 44.362 μm and 46.081 μm and 44.179 μm and 42.769 μm and 44.033 μm and 41.550 μm and 42.129 μm and 31.379 μm and 50.234 μm and 36.932 μm and 39.277 μm and 47.914 μm and 40.524 μm and 43.548 μm and 48.975 μm and 41.515 μm and 45.970 μm
  Thickness of ONL, distance from optic disk 900 μm (single measurement): 26.908 μm and 28.742 μm and 28.226 μm and 52.295 μm and 46.680 μm and 52.512 μm and 29.438 μm and 34.522 μm and 34.086 μm and 36.727 μm and 35.966 μm and 41.192 μm and 41.663 μm and 39.411 μm and 42.337 μm and 37.593 μm and 40.812 μm and 38.516 μm and 42.098 μm and 44.443 μm and 46.165 μm and 42.932 μm and 37.619 μm and 42.252 μm and 39.713 μm and 39.071 μm and 42.321 μm and 37.664 μm and 38.550 μm and 42.169 μm
[1]; test group 2 (preventive: eye drop on the 2 days before model creation)
  Inner plexiform layer (IPL) thickness compared with the control group, in words: statistically significant differences were observed at all measurement sites; also recorded: statistically significant effect of suppressing retinal damage by aqueous humor pressure load was observed at all measurement sites
[1]; test group 3 (therapeutic: eye drop for 13 days from the day after model creation)
  Inner plexiform layer (IPL) thickness compared with the control group, in words: statistically significant differences were observed at all measurement sites; also recorded: statistically significant effect of suppressing retinal damage by aqueous humor pressure load was observed at all measurement sites; also recorded: almost equivalent to that of the MK-801
[1]; [4]
  Inner nuclear layer (INL) thickness compared with the control group, in words: no obvious change was observed
  Outer nuclear layer (ONL) thickness compared with the control group, in words: no obvious change was observed
[2]; Group 3, eye drop 5 μg/5 μL/eye, Day 0 (Laser injection)
  Body Weight (Average): 152.66 g
[2]; Group 3, eye drop 5 μg/5 μL/eye, Day 14 (Enucleation)
  Body Weight (Average): 184.36 g
[2]; Group 3, eye drop 5 μg/5 μL/eye, Day −3 or Day −2 (Grouping)
  Body Weight (Average): 141.80 g
[2]; Group 3 individual animals, eye drop 5 μg/5 μL/eye, Enucleation (Day 14)
  Weight (g) (Individual): 187.51 g and 200.36 g and 188.53 g and 178.12 g and 191.73 g and 185.42 g and 178.06 g and 179.74 g and 187.00 g and 167.09 g
[2]; Group 3 individual animals, eye drop 5 μg/5 μL/eye, Grouping (Day −3 or −2)
  Weight (g) (Individual): 142.67 g and 150.51 g and 144.41 g and 133.08 g and 140.65 g and 139.40 g and 138.22 g and 145.52 g and 148.31 g and 135.25 g
[2]; Group 3 individual animals, eye drop 5 μg/5 μL/eye, Laser injection (Day 0)
  Weight (g) (Individual): 156.06 g and 160.40 g and 156.65 g and 141.07 g and 149.62 g and 153.89 g and 146.49 g and 158.03 g and 159.18 g and 145.16 g
[2]; Group 4, eye drop 50 μg/5 μL/eye, Day 0 (Laser injection)
  Body Weight (Average): 152.84 g
[2]; Group 4, eye drop 50 μg/5 μL/eye, Day 14 (Enucleation)
  Body Weight (Average): 186.10 g
[2]; Group 4, eye drop 50 μg/5 μL/eye, Day −3 or Day −2 (Grouping)
  Body Weight (Average): 141.65 g
[2]; Group 4 individual animals, eye drop 50 μg/5 μL/eye, Enucleation (Day 14)
  Weight (g) (Individual): 171.86 g and 175.04 g and 182.32 g and 197.31 g and 192.55 g and 179.90 g and 198.77 g and 183.99 g and 193.77 g and 185.47 g
[2]; Group 4 individual animals, eye drop 50 μg/5 μL/eye, Grouping (Day −3 or −2)
  Weight (g) (Individual): 133.40 g and 133.47 g and 138.61 g and 149.89 g and 142.02 g and 140.70 g and 144.50 g and 145.24 g and 149.29 g and 139.35 g
[2]; Group 4 individual animals, eye drop 50 μg/5 μL/eye, Laser injection (Day 0)
  Weight (g) (Individual): 140.92 g and 141.64 g and 146.31 g and 156.67 g and 152.34 g and 152.92 g and 159.45 g and 160.10 g and 163.58 g and 154.47 g
